Data: patent US7604990B2, “Methods of regulating differentiation in stem cells” (ES Cell International Pte Ltd., priority 2002, dated 2009)
Entries after “also recorded” stand apart in the source; their conditions may differ.

Assays:
Assay type in all cases: cell-based, human
[1] = system: hES cells; test: Direct observation of hES colonies in serum-depleted medium (Example 4)
Method: (A) hES cells grown with feeder, before the depletion in serum. (B) hES cells grown without serum after 8 days (B, C) and 12 days (D, E), in absence (B, D) or presence of S1P (C, E, 10 μM).
For direct observation, hES-3 cells were coated into 12-well plates (3 colonies per well), with or without mouse embryonic feeders (MEFs). The day following the plating, cells were incubated with the different agents in serum free medium containing insulin, transferring and selenium. Media was changed the 2nd day and then every 2 days.

[2] = system: ERKs (Erk1 and Erk2) in hES cells; test: ERK phosphorylation Western blot in hES cells (Example 1)
Method: RT-PCR for LPL receptors (A, B), PDGFR-[…] (alpha) and PDGFR-[…] (beta) (C), SPK-1 and SPK-2 (D), with (+) or without (−) RT. Immunostaining of hES cells with Hoechst 33342 (E, H), PDGFR-[…] (F) or PDGFR-[…] (I) and GCTM-2 (G, J) antibodies. S1P, LPA and PDGF stimulate ERKs phosphorylation in hES cells. (K) Western blots experiment were performed using protein lysate from hES cells. Cells were pre-treated or not with U0126 (30 μM, 1 hr) and incubated for 5 min in the absence (C, control) or presence of S1P (S, 10 μM), LPA (L, […]) or PDGF (P, 20 ng/ml). The phosphorylation of Erk1 and Erk2 (P-Erk1 and P-Erk2) was assessed by immunoblotting with a polyclonal anti-active MAP kinase as described in Materials and Methods. After a stripping procedure, the same blots were reprobed with a monoclonal anti-MAP kinase, allowed the detection of Erk1 and Erk2.
hES-3 cells plated without MEF for 24 hrs were depleted of serum for a further 18 hrs. Cells pre-treated or not with U0126 (Sigma, 30 μM, 1 hr), were incubated in the presence of the different agents for 5 min and were lysed by removal of the supernatants and addition of a reducing loading buffer containing 1 mM sodium orthovanadate (Sigma). Protein lysates (approx. 80 μg) were separated by SDS-polyacrylamide gel electrophoresis (10% polyacrylamide, w/v), transferred to nitrocellulose (Hybond-nitrocellulose, Amersham) and immunoblotting was carried out using rabbit polyclonal anti-active mitogen-activated protein (MAPK) antibodies raised against a dually phosphorylated MAPK peptide (Promega, Madison, Wis., USA). Peroxidase-coupled secondary antibody (Dako) was detected by exposure of autoradiographic films in the presence of a chemiluminescent detection reagent (ECL, Amersham). Stripping of antibodies was achieved and membranes were then reprobed with rabbit polyclonal anti-ERK1/2 antibodies (Promega), and then with peroxidase-coupled secondary antibodies (Dako). Membranes probed with either rabbit polyclonal anti-active p38 (Promega) or rabbit polyclonal anti-active JNK (Promega) antibodies were also performed, using the same procedure as described above.

[3] = system: hES cells; test: Spontaneous differentiation of hES colonies on MEF in serum-free medium, morphology (Example 2); settings: 2 weeks serum-free on MEF; S1P 10 μM, PDGF-AB 20 ng/ml, LPA up to 50 μM
Method: hES-3 cells were cultured as previously described^1. The serum-free culture medium consisted of DMEM (without sodium pyruvate, glucose 4500 mg/l, Invitrogen, Mount Waverley, VIC, Australia) supplemented with insulin/transferrin/selenium 1%, β-mercaptoethanol 0.1 mM, NEAA 1%, glutamine 2 mM, Hepes 25 mM, penicillin 50 U/ml and streptomycin […] (all from Invitrogen). Media was changed every 2 days and cells were passaged every week S1P and dihydro-S1P were obtained from Biomol (Plymouth Meeting, Pa., USA). LPA was obtained from Sigma (Castle Hill, NSW, Australia). Extemporaneous dilutions of all lipids were made in water containing 0.1% fatty acid-free bovine serum albumin (BSA) (Sigma). […] Human PDGF-AB, PDGF-AA, PDGF-BB were from Prepro Tech Inc. (Rocky Hill, N.J., USA) and were used at 20 ng/ml.

[4] = system: hES cells; test: Spontaneous differentiation of hES colonies on MEF in serum-free medium, morphology (Example 1); settings: 8 days serum-free on MEF; S1P 10 μM, PDGF 20 ng/ml, LPA up to 50 μM
Method: (A) hES cells grown with MEF, before the depletion of serum from the medium. (B, C, D, E) hES cells grown without serum after 8 days, in the absence (B) or in the presence of S1P (10 μM) (C), PDGF (20 ng/ml) (D), S1P (10 μM) plus PDGF (20 ng/ml) (E). (F) hES cells grown without serum, in the presence or in the absence (control) of S1P (10 μM), PDGF (20 ng/ml), S1P (10 μM) plus PDGF (20 ng/ml). In A-E, data are representative of at least 3 independent experiments. In F, data expressed as percentages of alkaline phosphatase activity in absence of serum for eight days (% of control), are the means±SEM of at least 2 independent experiments, each run in triplicate.
hES-3 cells were cultured as previously described^1. The serum-free culture medium consisted of DMEM (without sodium pyruvate, glucose 4500 mg/l, Invitrogen, Mount Waverley, VIC, Australia) supplemented with insulin/transferrin/selenium 1%, β-mercaptoethanol 0.1 mM, NEAA 1%, glutamine 2 mM, Hepes 25 mM, penicillin 50 U/ml and streptomycin […] (all from Invitrogen). Medium was changed every 2 days and cells were passaged every week. S1P and dihydro-S1P were obtained from Biomol (Plymouth Meeting, Pa., USA) and were dissolved in methanol. LPA was obtained from Sigma (Castle Hill, NSW, Australia) and was dissolved in ethanol. Extemporaneous dilutions of all lipids were made in water containing 0.1% fatty acid-free bovine serum albumin (BSA) (Sigma). Human PDGF-AB, PDGF-AA, PDGF-BB were from PreproTech Inc. (Rocky Hill, N.J., USA).

[5] = system: hES cells; test: ELISA-based GCTM-2 quantification in hES cells (Example 2)
Method: hES-3 cells were cultured as previously described^1. The serum-free culture medium consisted of DMEM (without sodium pyruvate, glucose 4500 mg/l, Invitrogen, Mount Waverley, VIC, Australia) supplemented with insulin/transferrin/selenium 1%, β-mercaptoethanol 0.1 mM, NEAA 1%, glutamine 2 mM, Hepes 25 mM, penicillin 50 U/ml and streptomycin […] (all from Invitrogen). Media was changed every 2 days and cells were passaged every week S1P and dihydro-S1P were obtained from Biomol (Plymouth Meeting, Pa., USA). LPA was obtained from Sigma (Castle Hill, NSW, Australia). Extemporaneous dilutions of all lipids were made in water containing 0.1% fatty acid-free bovine serum albumin (BSA) (Sigma). S1P and dihydro-S1P were used at […]. Human PDGF-AB, PDGF-AA, PDGF-BB were from Prepro Tech Inc. (Rocky Hill, N.J., USA) and were used at 20 ng/ml.
Cells were fixed in 100% ethanol and immunostained with GCTM-2 followed by alkaline phosphatase-coupled secondary antibodies (Dako). Alkaline phosphatase activity was detected by adding a solution of 4-nitrophenyl phosphate (Roche), and the concentration of the reaction product was determined by reading the optical density (OD) at 405 nm. In order to validate the technique as an accurate indicator of the proportion of GCTM-2 positive cells, standard curves were carried out with the embryonal carcinoma cell line GCT27C4, known to express GCTM-2^20.

[6] = system: ERKs (Erk1 and Erk2) in hES cells; test: ERK phosphorylation Western blot in hES cells (Example 5); settings: U0126 30 μM, 1 hr pre-treatment
Method: Western blots experiments were performed using protein lysate from hES cells. (A) Cells were pre-treated or not with U0126 (30 μM, 1 hr) and incubated for 5 min in the absence (C, control) or presence of S1P (10 μM). (B) Cells were incubated for different time periods in the absence or presence of S1P (10 μM). (C) Cells were incubated for 5 min with various concentrations of S1P. The phosphorylation of Erk1 and Erk2 (P-Erk1 and P-Erk2) was assessed by immunoblotting with a polyclonal anti-active MAP kinase as described in Materials and Methods. After a stripping procedure, the same blots reprobed with a monoclonal anti-MAP kinase, allowed the detection of Erk1 and Erk2.
For immunoblot analysis, cells were transferred into 24 well plates (8 colonies per well) without MEFs, and 24 hr later, were grown in the absence of serum for 18 hrs.
In some experiments, cells were pre-treated for 1 hr with U0126 (30 μM) or for 18 hrs with PTX (100 μg/ml).
hES3 cells were lysed following removal of the supernatants by addition of a reducing loading buffer (2% SDS, 62.5 mM Tris pH 6.8, 0.1 M DTT, 0.01% bromophenol blue) containing 1 mM sodium orthovanadate. Samples were boiled for 10 min and centrifuged at 13000 g for 15 min, and protein lysates (approx. 80 μg) were separated by SDS-polyacrylamide gel electrophoresis (10% polyacrylamide, w/v). Proteins were transferred to nitrocellulose (Hybond-ECL, Amersham) and immunoblotting was carried out with rabbit polyclonal anti-active mitogen-activated protein (MAPK) antibodies raised against a dually phosphorylated MAPK peptide (Promega, Madison, Wis., USA). Peroxidase-coupled secondary antibody (Dako) was detected by exposure of autoradiographic films in the presence of a chemiluminescent detection reagent (ECL, Amersham). Stripping of antibodies was achieved by incubating the membrane during 30 min at 50° C. in a buffer containing 100 mM mercaptoethanol, 2% SDS, 62.5 mM Tris-HCl pH 6.7. The membrane was then reprobing with rabbit polyclonal anti-ERK1/2 antibodies (Promega), and then with peroxidase-coupled secondary antibodies (Dako).

Compound: lysophosphatidic acid [LPA]
- growth/differentiation of hES colonies on MEFs ([1]; S1P 10 μM 8 days, LPA up to 50 μM 12 days): did not seem to affect the growth of the colonies; also recorded: inactive
- effect on cell differentiation, hES cells grown without MEFs ([1]; without MEFs, n=3): lack of effect
- phosphorylation of ERKs ([2]; hES cells, 5 min, S1P 10 μM, LPA 50 M, PDGF 20 ng/ml): stimulated the phosphorylation of ERKs
- size or morphology of hES cell colonies (spontaneous differentiation) [3]: no obvious effect on size or morphology
- colony growth/morphology (spontaneous differentiation) [4]: did not have an obvious effect on growth of the colonies

Compound: CCCCCCCCCCCCC/C=C/[C@@H](O)[C@H](CO)N(C)C [DMS, dimethylsphingosine]
- effect on PDGF and S1P action (GCTM2) ([5]; DMS 3 µM for 7 days): inhibited the effect of PDGF and S1P

Compound: N#CC(=C(/N)Sc1ccccc1N)/C(C#N)=C(\N)Sc1ccccc1N [U0126]
- effect on S1P-, LPA- and PDGF-stimulated phosphorylation of ERKs ([2]; U0126 30 μM, 1 hr pre-treatment): totally inhibited
- effect on S1P-stimulated phosphorylation of ERKs [6]: totally inhibited
- effect on PDGF and S1P action on GCTM2 expression ([5]; U0126 10 mM for 7 days): totally inhibited
